Consider 1 molecule from patent US6878701B2, “Potassium channel blocking agents” (Neurosearch A/S, priority 1999, dated 2005).

For orientation: IC50 means the concentration that gives 50% inhibition.

The target of the assay is T1, small-conductance Ca2+-activated K+ channels (SK channels, isoform 2) (Rattus norvegicus, UniProt P70604).
T1 construct: expressed in transfected cells; host or cells: HEK293
In words: Whole-cell patch-clamp recording of SK channel current in stably transfected HEK293 cells. It counts as cell-based. The note with it: rat SK2 stably expressed in HEK293 cells, room temperature, IC50 = Koff/Kon from kinetics of the block, read-out: biological activity determined as IC50. As to the method:
In this experiment. small-conductance Ca^2+-activated K^+ channels (SK channels, isoform 2) cloned from a rat cDNA library were stably expressed in HEK293 cells using standard procedures. The ionic current through the channels was recorded in the whole-cell mode of the patch-clamp technique.
Cells plated on coverstips are placed in a 15 μl perfusion chamber (flowrate ˜1 ml/min), mounted on a IMT-2 microscope equipped with Nomarski or Hoffmann optics. The microscopes are placed on vibration-free tables in grounded Faraday cages.
All experiments are performed at room temperature (20-22° C.). […] Data are stored directly on the harddisk and analysed by the IGOR software according to the manufacturer's instructions.
The whole-cell configuration of the patch clamp technique is applied. […] Cell capacitance is electronically compensated and the resistance between the pipette and the cell interior (the series resistance, Rs) is measured and compensated for. […]
In the experiments where the effect of channel activators is quantified (test 475), the intracellular (pipette) solution has the following composition (concentration in mM):
The calculated free concentration of Ca^2+ in this solution is 100 nM, and that of Mg^2+ is 1 mM. In these experiments, the concentration of CaCl2 is 7.6 mM and that of MgCl2 is 1.2 mM to give calculated free concentrations of 300 nM and 1 mM, respectively. […]

Structures are written as SMILES.

Regarding `CN1CCN(C)c2nc(c3ccccc3n2)NCC2CCCC(CNc3nc1nc1ccccc31)C2` [Compound 2, 20,23-dimethyl-2,10,18,20,23,25,32,33-octaazahexacyclo [22.7.1.1^4.8.1^11,19.0^12,17.0^26,31] tetratriaconta-1(32).11,13,15,17,19(33),24,26,28,30-decaene], the IC50 was less than 1000 nM.
